Entries after “also recorded” stand apart in the source; their conditions may differ. Blank lines part the entries; values can stand above or below the substance they belong to.
Key:
MB49 tumors = assay: MB49 murine bladder tumor model, efficacy and pharmacodynamics; design: species or system C57/BL6-huCTLA4 mice; settings: mouse, in vivo
Method: Efficacy and pharmacodynamics (PD) of anti-CTLA4 antibodies were assessed using the MB49 murine bladder tumor model. Efficacy was assessed by administering each test antibody (RSV-m control antibody, ipilimumab, Antibody 2-6, Antibody 2-14, and Antibody 2-15) and then assessing tumor volume and body weight. The anti-RSV control antibody contains S239D and I332E mutations (RSV-m control antibody). Peripheral immunophenotyping was also carried out on day 5, which assessed the percentage of CD4+Ki67+ cells and the percentage of CD4+ICOS+ cells in the peripheral blood on day 5 following administration. As used herein, dosing in mg/kg is also referred to as “mpk.” MB49 cells were inoculated subcutaneously into C57/BL6-huCTLA4 mice. Treatment started when the tumors reached approximately 350 mm^3. […]
Pharmacodynamics is assessed by administering antibody to each of five cohorts of mice, with dosing (mg/kg) as shown in Table 16. Immunophenotyping among other readouts are performed in the tumor, liver, spleen, and blood. T cells are assessed by measuring Foxp3+CD25+ cells as a percentage of CD4+ cells, and CD8+ cells are measured as a percentage of CD45+ cells. Cleavage and drug levels in tumors, liver, kidney, spleen, and plasma is also assessed.

tumor conditioned media = assay: AMSP-MS kinetic analysis of AK10 peptides, patient tumor; format: biochemical, human
Method: (§1) Ten sequences (AK10) shown in Table 19 were analyzed via AMSP-MS. These sequences were slightly modified from the original sequences to generate mass spectrometry-compatible peptides (in some cases adding basic residues to add positive charge) and spacing residues (GG) to produce longer ˜14-mer peptides. The peptides were prepared at a 500 nM final concentration in the AMSP-MS reaction. The AK10 library was also separately analyzed by LC-MS/MS for chemical validation of the peptide species. The AMSP-MS analysis was performed under standard substrate specificity profiling conditions, sampling time points during the reaction incubation at 0, 15, 60, 240 and 1200 min. Peptides were quantified by mass spectrometric label-free quantitation from the MS1 precursor ion peak areas for each peptide species. Enzyme progress curves were modeled in GraphPad Prism software v 8.0 and data were fitted using non-linear least squares fitting to the first order kinetic equation: where Y=percent product formation, Kobs is the observed rate, and t=time. In Michaelis-Menten kinetics, the observed rate Kobs is a function of the enzyme concentration and catalytic efficiency (kcat/KM). In this analysis of an enzyme mixture, Kobs was used to rank product cleavages.

NAT conditioned media = assay: AMSP-MS kinetic analysis of AK10 peptides, NAT; format: biochemical, human
Method: as §1

MC38 conditioned media = assay: AMSP-MS kinetic analysis of AK10 peptides, MC38; format: biochemical, mouse; settings: MC38 serum-free conditioned media
Method: as §1

9D9 antibody = assay: Surface Plasmon Resonance of masking peptide binding to 9D9 antibody; settings: SPR, reference channel
Method: FIGS. 1A and 1B is a series of graphs showing in vitro analyses of anti-CTLA4 antibody occlusion by a masking peptide. Surface plasmon resonance (SPR) was performed to examine A) kinetics and B) affinity between 9D9 antibody (ligand) and masking peptide […] (analyte). Analytes were run in increasing concentrations of 2-fold serial dilutions from 0.1 to 50 μM at 37° C. Reference-subtracted response was plotted. SPR was performed three times and representative traces from one experiment are shown.
Surface Plasmon Resonance was performed on a GE Biacore T200 instrument at 37° C. The 9D9 antibody and isotype control (reference channel) were coupled at 100 RU immobilization level to CM5 chip (GE Healthcare). Peptides were synthesized and diluted into HBS-EP+ running buffer (GE Healthcare). The binding data were analyzed using Biacore Evaluation Software, version 3.0.

Substance: ipilimumab [reference compound]
- Regulatory T cell depletion and CD8+ T cell activation in the tumor microenvironment (MB49 tumors): not

Substance: RGGVPLSLYSGGGK [AK-03]
- ranking as substrate (relative efficiency) (tumor conditioned media): top cleavages

Substance: RGGDSGGFMLTGGK [AK-05]
- ranking as substrate (relative efficiency) (NAT conditioned media): weaker substrates

Substance: MPYDLYHPRQARVVG [AK-10]
- ranking as substrate (relative efficiency) (MC38 conditioned media): best substrates
- ranking as substrate (relative efficiency) (NAT conditioned media): better performing substrates; also recorded: most efficient NAT substrate

Substance: LSGRSNAMPYDLYHP [AK-09]
- ranking as substrate (relative efficiency) (MC38 conditioned media): best substrates
- ranking as substrate (relative efficiency) (NAT conditioned media): better performing substrates

- binding to isotype control antibody (9D9 antibody): did not bind
Substance: CNLIVEGHC

Substance: RGGMPYDLYHPGGK [AK-04]
- ranking as substrate (relative efficiency) (tumor conditioned media): top cleavages
- ranking as substrate (relative efficiency) (NAT conditioned media): better performing substrates

Source: patent publication US20220073613A1, “ACTIVATABLE MASKED ANTI-CTLA4 BINDING PROTEINS” (Xilio Development, Inc., priority 2018, published 2022)
